Test results taken from patent US20260258083A1, “T Cell Engager Masking Molecules” (AMGEN INC., priority 2023, published 2026).
Where no end group is shown, it is not given here. [ ]: non-standard residue; d: D form. pGlu = O=C1CC[C@@H](C(=O)O)N1

Assays:
[1] = system: FLT3×CD3 TCE (SEQ ID NO: 93); assay: Association kinetics by KinExA (Table 5); type: binding; details: KinExA, FLT3×CD3 TCE
Procedure: • 1. Preparation of NHS-activated sepharose fast-flow beads: • 2. Fast flow sepharose suspension in 100% IPA, washed twice with milliQ H20, mild centrifugation to pool beads in between wash steps. • 3. Equilibrated in 0.15 M NaBO3, pH=8.5 buffer • 4. Added 80 mM PDEA to activate the resin for thiol exchange, 10 mins, r.t. • 5. Equilibrated resin with Hepes Buffered Saline-P (0.01 M HEPES pH 7.4, 0.15 M NaCl, 0.005% v/v Surfactant P2), pH 7.4 binding buffer • 6. Added 30 μg/mL of binding peptide, […] (SEQ ID NO; 297) or pGlu-[…] (SEQ ID NO: 300), reaction for 1 hr to functionalize resin. • 7. Quench with 10 mM L-Cys for 1 hour. • 8. Constant Binding Partner was FLT3×CD3 TCE (SEQ ID NO: 93), MW 105720, 3.2 mg/mL 31.21 uM was diluted to 333 pM and the pGlu-[…] peptide or pGlu-[…]-PEG (Pep-PEG v2) were titrated from 1 uM or 400 nM down to 2.3 pM concentrations relative to effective peptide molarity.
Association Kinetics by KinExA

[2] = 2nd mouse PK study, IV bolus (Example 3); type: in vivo; details: BL/6 mice, IV bolus 5 mg/kg, plasma
Procedure: Example 3: 2nd Mouse PK Study
A second PK study was conducted in BL/6 mice to evaluate the plasma pharmacokinetics of the masking peptide in 8-arm (octavalent), 40 kDa PEG form. Both CD3ε PepPOL, v1 (40 kDa) and CD3ε PepPOL, v1 (20 kDa) (see Table 6 for sequences) were administered to mice by IV bolus at 5 mg/kg dose level and the results are shown in Fig. XX. […] The terminal elimination half-lives were estimated to be between 90 min and 120 min for the 20 kDa or 40 kDa CD3ε PepPOL, v1 forms, respectively.

muCD19 TCE = muCD19 TCE + CD3ε PepPOL, v1 co-administration pilot study, cytokines and CD19+ B cell depletion (Example 6); type: in vivo, huCD3ε TCR KI mice; details: ≥1000× molar overage with 100 μg/kg muCD19 TCE
Procedure: Example 6: Study muCD19 TCE+CD3ε PepPOL, v1 Co-Administration in huCD3ε TCR KI Mouse Model. 100 ug/kg IV Dose Murine Anti-muCD19 TCE Investigated >2300X
An initial pilot study in huCD3ε TCR KI mice was conducted to establish the desired PD effect with CD3ε PepPol v1. Here, CD3ε PepPol, v1 was co-administered at ≥1000× molar overage (peptide:TCE) with 100 μg/kg muCD19 TCE.

[3] = Mouse pharmacokinetic study, IV (Example 2); details: BL/6 mice, IV, 0.82 or 8.2 mg/kg, plasma total intact peptide
Procedure: Example 2: Mouse Pharmacokinetic Study to Evaluate In Vivo PK
The 4-arm 20 kDa PepPOL conjugate was dosed by IV administration to BL/6 mice at 0.82 or 8.2 mg/kg dose levels. […] The PK profiles for each peptide were evaluated by quantifying plasma concentrations of total intact peptide material over time (see methods).

[4] = C57BL/6 mice, single dose, non-linear one-phase decay fitting
From the text: Example 4: TCE Masking Molecule in PK Mouse Study
To further understand the in vivo behavior of the pyro-Glu containing dimeric p-[…]

CD20 TCE = CD20 TCE + CD3ε PepPOL, v2 PK/PD study 157130 (Example 10); type: in vivo, cynomolgus monkeys
Procedure: Example 10: Cynomolgus Study CD20 TCE (0.010 mg/kg)+CD3ε PepPOL, v2 (+25× (0.016 mg/kg), +250× (0.16 mg/kg) Co-Administration in Cynomolgus Monkeys
PK/PD study 157130 was an exploratory dose-ranging study conducted in cynomolgus monkeys aimed to establish activity of a ‘high affinity’ CD3ε PepPOL, v2 when co-administered with CD20 TCE. Primary study endpoints included: cytokine release, CD20+ B cell lysis, T cell activation, and clinical chemistry end points typically associated with CRS (e.g., CRP). CD20 TCE was dosed at 10 ug/kg alone, or in combination with CD3ε PepPOL, v2 at 0.016 mg/kg (25× molar excess CD3ε peptide), or 0.160 mg/kg (250× molar excess CD3ε peptide). A summary of the results is described below.
Serum cytokines MCP-1, IL-6, TNFα, IFNγ, and IL-2 were assessed by multiplex sandwich immunoassay at multiple time points from 0-168 hours post dose.

FLT3xCD3 TCE = assay: SPR solution assay of competition binding with TCE
Procedure: (§1) SPR Solution Assay of Competition Binding with TCE
(§2) As it can be derived from table 6,
(§3) A high affinity SPR ‘capture’ surface was first constructed to facilitate the SPR analysis of pre-equilibrated peptide analyte+TCE solutions. Briefly, a Cytiva CM5 chip was functionalized with PDEA (2-(2-pyridinyldithio)ethaneamine) under standard EDC/NHS coupling conditions where the PDEA is dissolved to 20 mM 2-(2-pyridinyldithio)ethaneamine and 1 M NaCl in 0.1 M sodium acetate pH 4.3, 6 peptide including p[…] (ID 14974, SEQ ID NO 304) were tested:
(§4) Respective peptide was dissolved to between 50 and 100-ug/mL for injection over the activated CM5 surface in PBST, pH 6.5, and coupling times were optimized to yield the desired surface density (~300RU).
(§5) For the binding assessment, Individual binding isotherms were constructed by titrating the respective peptide of interest into a fixed concentration of TCE-containing solution in PBST. At least 4 hrs equilibration time were allotted (r.t.) prior to analysis by SPR. For the analysis, a calibration curve was first constructed of the TCE analyte being assessed. For analysis of the TCE+peptide mixtures, the samples were injected (10 uL/min) over the previously prepared capture surface for 90 seconds, where the SPR response (RU) was recorded at the end of the injection and referenced to the previously prepared standard curve to derive an estimate of the ‘free’ TCE concentration in the presence of peptide analyte. The ‘free’ TCE concentration measured was plotted as a function of log peptide concentration and fit using non-linear regression analysis to a 4 parameter logistic function to derive an IC50.

STEAP1xCD3 TCE = assay: SPR solution assay of competition binding with TCE
Procedure: as §1, §2, §3, §4, §5

[5] = system: CDH3-CD3-MSLN-CD3 TCE (SEQ ID NO 255); assay: SPR assay of immobilized peptides binding with TCE
Procedure: (§6) Example 14: SPR Assay of Immobilized Peptides Binding with TCE
(§7) A cytiva CM5 chip was first functionalized with PDEA (2-(2pyridinyldithio)ethaneamine) under standard ((1-ethyl-3-(3-dimethylaminopropyl)carbodiimide)/(N-hydroxysuccinimide) EDC/NHS coupling conditions where the PDEA is dissolved to 20 mM and 1 M NaCl in 0.1 M sodium acetate pH 4.3. Binding peptides were dissolved to 50- or 100-ug/mL respectively in PBST, pH 6.5, and coupling times were optimized to yield the desired surface density.

[6] = system: CLDN6xCD3 TCE SEQ ID NO 340; assay: SPR assay of immobilized peptides binding with TCE; details: immobilized peptide, Kinetic 1:1 Binding
Procedure: as §6, §7

[7] = target: DLL3xCD3 TCE SEQ ID NO 104; assay: SPR assay of immobilized peptides binding with TCE; details: immobilized peptide, Kinetic 1:1 Binding
Procedure: as §6, §7

[8] = target: FLT3xCD3 TCE SEQ ID NO 93; assay: SPR assay of immobilized peptides binding with TCE; details: immobilized peptide, Kinetic 1:1 Binding
Procedure: as §6, §7

[9] = target: Steap 1xCD3 TCE SEQ ID NO 373 + 374 + 375; assay: SPR assay of immobilized peptides binding with TCE; details: immobilized peptide, Kinetic 1:1 Binding
Procedure: as §6, §7

Sequence of DLL3xCD3 TCE SEQ ID NO 104 (as listed by the source): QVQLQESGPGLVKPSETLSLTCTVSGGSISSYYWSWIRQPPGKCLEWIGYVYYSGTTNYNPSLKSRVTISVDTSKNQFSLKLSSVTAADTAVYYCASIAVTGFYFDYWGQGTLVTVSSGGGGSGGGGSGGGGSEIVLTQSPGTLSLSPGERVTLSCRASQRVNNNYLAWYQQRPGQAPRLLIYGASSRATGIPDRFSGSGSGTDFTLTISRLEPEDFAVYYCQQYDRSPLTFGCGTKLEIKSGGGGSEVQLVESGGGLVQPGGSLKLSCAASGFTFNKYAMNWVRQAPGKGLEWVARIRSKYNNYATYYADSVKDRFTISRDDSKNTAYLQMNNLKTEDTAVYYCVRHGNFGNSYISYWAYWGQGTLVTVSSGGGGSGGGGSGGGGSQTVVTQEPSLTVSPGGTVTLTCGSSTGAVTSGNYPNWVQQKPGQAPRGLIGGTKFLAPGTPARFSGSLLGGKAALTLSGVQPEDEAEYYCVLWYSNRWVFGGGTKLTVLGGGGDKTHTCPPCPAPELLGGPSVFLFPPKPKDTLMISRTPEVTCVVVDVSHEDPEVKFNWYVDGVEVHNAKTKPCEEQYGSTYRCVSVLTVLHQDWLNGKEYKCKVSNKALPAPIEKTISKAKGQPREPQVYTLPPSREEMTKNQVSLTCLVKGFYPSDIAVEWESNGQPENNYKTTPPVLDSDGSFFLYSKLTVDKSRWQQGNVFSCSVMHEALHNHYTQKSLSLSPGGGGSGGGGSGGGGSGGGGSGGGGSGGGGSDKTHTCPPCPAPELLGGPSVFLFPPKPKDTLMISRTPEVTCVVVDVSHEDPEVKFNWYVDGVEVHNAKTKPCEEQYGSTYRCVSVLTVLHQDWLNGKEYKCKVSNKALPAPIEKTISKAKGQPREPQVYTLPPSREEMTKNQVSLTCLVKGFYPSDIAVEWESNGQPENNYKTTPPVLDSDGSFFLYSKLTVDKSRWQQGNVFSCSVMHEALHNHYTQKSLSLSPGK
Sequence of Steap 1xCD3 TCE SEQ ID NO 373 + 374 + 375 (as listed by the source): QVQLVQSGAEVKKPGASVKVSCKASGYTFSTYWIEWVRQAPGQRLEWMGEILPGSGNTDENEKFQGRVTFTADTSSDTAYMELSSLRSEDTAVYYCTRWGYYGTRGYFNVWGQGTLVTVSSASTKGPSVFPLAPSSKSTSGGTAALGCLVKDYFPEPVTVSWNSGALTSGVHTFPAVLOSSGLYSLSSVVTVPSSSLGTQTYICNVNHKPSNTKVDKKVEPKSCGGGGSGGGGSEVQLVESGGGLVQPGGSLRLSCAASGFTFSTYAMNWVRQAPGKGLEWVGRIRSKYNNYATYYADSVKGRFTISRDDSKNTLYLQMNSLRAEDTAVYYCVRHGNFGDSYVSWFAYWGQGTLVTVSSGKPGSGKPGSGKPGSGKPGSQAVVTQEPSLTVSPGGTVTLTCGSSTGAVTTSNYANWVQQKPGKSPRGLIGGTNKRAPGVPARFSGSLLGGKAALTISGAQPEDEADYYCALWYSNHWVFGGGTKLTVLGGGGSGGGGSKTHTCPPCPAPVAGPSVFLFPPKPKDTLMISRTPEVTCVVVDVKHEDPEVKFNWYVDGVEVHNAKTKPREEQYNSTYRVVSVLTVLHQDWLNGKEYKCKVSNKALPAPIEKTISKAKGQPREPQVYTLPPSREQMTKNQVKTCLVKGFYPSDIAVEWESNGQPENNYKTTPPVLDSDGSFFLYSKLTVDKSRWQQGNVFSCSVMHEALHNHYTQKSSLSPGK
Sequence of Steap 1xCD3 TCE SEQ ID NO 373 + 374 + 375 (as listed by the source partner): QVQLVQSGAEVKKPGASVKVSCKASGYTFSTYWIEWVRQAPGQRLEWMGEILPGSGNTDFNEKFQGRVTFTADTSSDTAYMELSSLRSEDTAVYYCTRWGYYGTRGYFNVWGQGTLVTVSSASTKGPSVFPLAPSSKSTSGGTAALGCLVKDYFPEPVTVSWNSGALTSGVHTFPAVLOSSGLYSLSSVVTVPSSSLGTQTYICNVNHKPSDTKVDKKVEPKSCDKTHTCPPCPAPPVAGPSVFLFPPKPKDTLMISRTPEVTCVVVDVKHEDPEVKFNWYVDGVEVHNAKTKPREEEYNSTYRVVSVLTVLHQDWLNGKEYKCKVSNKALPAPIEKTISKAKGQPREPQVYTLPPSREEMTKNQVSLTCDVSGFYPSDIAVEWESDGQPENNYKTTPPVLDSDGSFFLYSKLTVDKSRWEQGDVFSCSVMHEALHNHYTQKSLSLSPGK
Sequence of Steap 1xCD3 TCE SEQ ID NO 373 + 374 + 375 (as listed by the source partner): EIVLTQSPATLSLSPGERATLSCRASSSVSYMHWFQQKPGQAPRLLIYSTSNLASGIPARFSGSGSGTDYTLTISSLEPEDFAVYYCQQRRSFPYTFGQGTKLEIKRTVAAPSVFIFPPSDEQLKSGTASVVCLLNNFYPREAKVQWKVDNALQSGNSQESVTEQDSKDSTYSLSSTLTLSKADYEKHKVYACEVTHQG
Sequence of FLT3xCD3 TCE SEQ ID NO 93 (as listed by the source): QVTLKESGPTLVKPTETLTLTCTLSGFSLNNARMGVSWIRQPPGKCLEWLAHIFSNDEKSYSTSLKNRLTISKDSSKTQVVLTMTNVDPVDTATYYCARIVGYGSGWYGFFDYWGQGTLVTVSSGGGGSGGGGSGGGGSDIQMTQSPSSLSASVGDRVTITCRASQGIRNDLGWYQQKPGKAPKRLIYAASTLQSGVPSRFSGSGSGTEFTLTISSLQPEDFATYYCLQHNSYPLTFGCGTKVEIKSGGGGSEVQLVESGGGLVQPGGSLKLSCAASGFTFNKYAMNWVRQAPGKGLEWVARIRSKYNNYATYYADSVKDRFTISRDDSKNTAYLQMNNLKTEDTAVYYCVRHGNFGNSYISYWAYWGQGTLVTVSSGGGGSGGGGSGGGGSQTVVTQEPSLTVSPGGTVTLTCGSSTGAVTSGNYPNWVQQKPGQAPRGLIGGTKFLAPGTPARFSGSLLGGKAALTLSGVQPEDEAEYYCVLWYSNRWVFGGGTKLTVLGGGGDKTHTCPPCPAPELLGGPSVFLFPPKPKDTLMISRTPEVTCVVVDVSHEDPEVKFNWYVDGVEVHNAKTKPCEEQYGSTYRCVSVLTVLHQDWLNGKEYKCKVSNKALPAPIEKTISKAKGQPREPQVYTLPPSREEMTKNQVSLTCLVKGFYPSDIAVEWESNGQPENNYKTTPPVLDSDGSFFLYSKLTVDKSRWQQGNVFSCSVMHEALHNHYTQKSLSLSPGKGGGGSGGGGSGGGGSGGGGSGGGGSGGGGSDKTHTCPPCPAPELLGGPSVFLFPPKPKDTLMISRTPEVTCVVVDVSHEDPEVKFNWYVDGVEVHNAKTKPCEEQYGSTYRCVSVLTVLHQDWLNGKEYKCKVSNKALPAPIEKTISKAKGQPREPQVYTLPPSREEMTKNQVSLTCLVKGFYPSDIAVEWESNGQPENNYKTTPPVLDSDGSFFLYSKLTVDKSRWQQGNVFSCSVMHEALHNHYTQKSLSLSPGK
Sequence of CDH3-CD3-MSLN-CD3 TCE (SEQ ID NO 255) (as listed by the source): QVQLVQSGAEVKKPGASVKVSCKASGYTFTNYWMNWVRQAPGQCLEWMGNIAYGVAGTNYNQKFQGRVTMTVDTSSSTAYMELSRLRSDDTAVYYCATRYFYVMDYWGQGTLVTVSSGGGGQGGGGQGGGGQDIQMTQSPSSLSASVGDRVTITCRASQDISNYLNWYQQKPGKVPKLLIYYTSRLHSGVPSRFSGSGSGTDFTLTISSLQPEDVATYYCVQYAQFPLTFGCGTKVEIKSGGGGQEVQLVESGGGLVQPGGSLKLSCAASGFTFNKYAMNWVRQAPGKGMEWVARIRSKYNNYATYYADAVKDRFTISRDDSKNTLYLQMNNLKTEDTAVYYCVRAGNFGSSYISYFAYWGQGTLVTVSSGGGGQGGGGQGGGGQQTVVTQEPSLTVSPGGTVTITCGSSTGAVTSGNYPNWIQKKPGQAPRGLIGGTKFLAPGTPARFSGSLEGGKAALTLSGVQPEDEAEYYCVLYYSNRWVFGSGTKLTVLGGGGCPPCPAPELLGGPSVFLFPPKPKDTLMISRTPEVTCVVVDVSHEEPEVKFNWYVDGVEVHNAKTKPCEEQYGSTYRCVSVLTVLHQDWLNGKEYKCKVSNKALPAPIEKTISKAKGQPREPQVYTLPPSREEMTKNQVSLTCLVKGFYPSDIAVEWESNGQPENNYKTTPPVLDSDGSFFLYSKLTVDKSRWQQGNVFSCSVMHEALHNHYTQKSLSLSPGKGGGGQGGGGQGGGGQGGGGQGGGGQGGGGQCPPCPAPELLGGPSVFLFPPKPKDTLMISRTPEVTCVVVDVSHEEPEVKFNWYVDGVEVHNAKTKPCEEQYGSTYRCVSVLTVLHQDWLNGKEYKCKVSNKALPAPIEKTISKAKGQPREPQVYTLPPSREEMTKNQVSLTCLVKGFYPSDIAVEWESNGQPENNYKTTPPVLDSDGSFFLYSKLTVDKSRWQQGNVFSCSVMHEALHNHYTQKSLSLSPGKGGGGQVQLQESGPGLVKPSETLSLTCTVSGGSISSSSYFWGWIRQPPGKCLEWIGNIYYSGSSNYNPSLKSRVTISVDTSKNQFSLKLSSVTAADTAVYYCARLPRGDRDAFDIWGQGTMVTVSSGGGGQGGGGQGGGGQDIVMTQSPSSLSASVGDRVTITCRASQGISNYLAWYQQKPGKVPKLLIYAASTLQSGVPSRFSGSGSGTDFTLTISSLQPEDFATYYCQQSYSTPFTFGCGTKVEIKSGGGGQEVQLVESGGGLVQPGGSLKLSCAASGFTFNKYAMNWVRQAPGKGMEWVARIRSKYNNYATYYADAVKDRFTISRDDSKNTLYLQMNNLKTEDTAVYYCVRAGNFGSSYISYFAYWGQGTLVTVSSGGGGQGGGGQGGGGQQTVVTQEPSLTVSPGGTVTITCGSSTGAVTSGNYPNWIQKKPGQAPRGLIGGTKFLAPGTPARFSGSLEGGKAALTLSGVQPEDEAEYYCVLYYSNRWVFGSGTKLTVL

Substance: (QDGNEEMGKGMEENGDQC)4 - PEG(20 kDa) (also: four copies conjugated to PEG 20 kDa)
- koff [1]: 0.0047 s⁻¹
- terminal elimination half-lives [2]: ~90 min
- PD effect with respect to CD19+ B cell depletion (muCD19 TCE): retained a greater degree of PD effect
- impact on cytokine reduction (muCD19 TCE): cytokine reduction can be seen
- terminal elimination half-life [3]: ~1.47 h

Substance: (pE-DGNEEMGKGMEENGDQC)4-PEG(20 kDa) ([pGlu]DGNEEMGKGMEENGDQC; also: four copies attached to PEG(20 kDa), site not given here)
- koff [1]: 0.00195 s⁻¹
- elimination half-lives [4]: ~102 min
- IL-6 serum concentration (CD20 TCE; 0.010 mg/kg CD20 TCE + 0.016 mg/kg (25×)): moderate increase in IL-6 serum concentration for n=1 of 2 animals
- IL-6 stimulation (CD20 TCE; 0.010 mg/kg CD20 TCE + 0.16 mg/kg (250×)): No IL-6 stimulation was observed
- difference in CD20 TCE cytolytic activity vs CD20 TCE control group (CD20 TCE; 0.010 mg/kg CD20 TCE IV): No apparent difference
- circulating CD20+ B lymphocytes (CD20 TCE; 0.010 mg/kg CD20 TCE IV alone or in combination): complete elimination
- reduction in peak serum MCP-1 (CD20 TCE; 4 hr, 250× combo group, 0.010 mg/kg CD20 TCE IV): ~ 98%
- TNF-α and IFN-γ (CD20 TCE; CD20 TCE + 0.160 mg/kg, all time points, both animals): not detected above the assay LLOQ
- IL-2 response (CD20 TCE; any group): No detectable IL-2 response
- T cell activation, early (CD69+) and late (CD25+) markers by flow cytometry (CD20 TCE; co-administration with 0.010 mg/kg CD20 TCE, 20 day study): pronounced effect on T cell activation
- C-reactive protein (CRP) (CD20 TCE; combo groups relative to CD20 TCE monotherapy 0.010 mg/kg IV): dose-dependent decrease in CRP

Substance: pGlu-DGEEELKGC (N-terminal pyroglutamate; VARIANT 1 Pyroglutamic acid)
- IC50 (FLT3xCD3 TCE; solution competition): 14.7 nM
- IC50 (STEAP1xCD3 TCE): 28.6 nM
- fast component for the off-rate ([5]; bivalent analyte model): 0.236 s⁻¹
- fast component of the on-rate ([5]; bivalent analyte model): 1.29e+06 M⁻¹ s⁻¹
- Kd ([5]; immobilized peptide, SS Affinity model): 0.0725 µM
- ka [6]: 3.81e+06 M⁻¹ s⁻¹
- kd [6]: 0.0624 s⁻¹
- Kd [7]: 0.0205 µM
- ka [7]: 2.64e+06 M⁻¹ s⁻¹
- kd [7]: 0.0542 s⁻¹
- Kd [8]: 0.0073 µM
- ka [8]: 4.04e+06 M⁻¹ s⁻¹
- kd [8]: 0.0295 s⁻¹
- Kd [9]: 0.0274 µM
- ka [9]: 3.04e+06 M⁻¹ s⁻¹
- kd [9]: 0.0834 s⁻¹

Substance: pGlu-DGTEELKGC ([pGlu]DGTEELKGC)
- reduction in IC50 (FIG. 19) (FLT3xCD3 TCE; FLT3×CD3 TCE and STEAP1×CD3 TCE): negative example
- ka [7]: 4.81e+06 M⁻¹ s⁻¹
- kd [7]: 0.0713 s⁻¹
- ka [8]: 3.21e+06 M⁻¹ s⁻¹
- kd [8]: 0.0285 s⁻¹
- ka [9]: 2.09e+06 M⁻¹ s⁻¹
- kd [9]: 0.0734 s⁻¹
